Assay results from US20040082635A1, “Fused cyclic compounds and medicinal use thereof” (priority 2001, published 2004).
pIC50: −log10 of the molar value. Structures can show the parent of a compound that is named as a salt.

target: T1, HCV polymerase (Hepatitis C virus genotype 1b, UniProt P26663); assay: biochemical; settings: read-out: HCV polymerase inhibitory activity IC50
T1 construct: a region encoding NS5B (591 amino acids; J Virol 1991 Mar, 65(3), 1105-13) was amplified by PCR; 6 His (N); made in house; host or cells: Escherichia coli
T1 sequence (P26663 2420-3010): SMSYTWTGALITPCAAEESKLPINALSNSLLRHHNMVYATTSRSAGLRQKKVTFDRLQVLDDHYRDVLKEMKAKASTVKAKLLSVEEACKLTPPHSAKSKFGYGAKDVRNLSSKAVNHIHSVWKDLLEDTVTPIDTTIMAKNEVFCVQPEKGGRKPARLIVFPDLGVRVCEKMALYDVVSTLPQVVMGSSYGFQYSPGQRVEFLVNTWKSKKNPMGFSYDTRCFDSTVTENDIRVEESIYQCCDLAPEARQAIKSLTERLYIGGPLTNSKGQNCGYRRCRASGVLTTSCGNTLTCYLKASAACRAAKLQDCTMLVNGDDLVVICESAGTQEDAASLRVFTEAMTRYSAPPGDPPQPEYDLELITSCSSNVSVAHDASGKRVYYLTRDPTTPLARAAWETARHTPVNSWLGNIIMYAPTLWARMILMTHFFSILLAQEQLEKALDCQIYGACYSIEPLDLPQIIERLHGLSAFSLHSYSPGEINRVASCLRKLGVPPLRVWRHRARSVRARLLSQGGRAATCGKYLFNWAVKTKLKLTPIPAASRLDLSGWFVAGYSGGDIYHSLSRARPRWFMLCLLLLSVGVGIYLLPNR

SMILES	pIC50
CC(C)(C)OC(=O)N1CCC(COc2ccccc2Oc2ccc(-c3nc4cc(C(=O)O)ccc4n3C3CCCCC3)cc2)CC1 [Example 155, 2-{4-[2-{(1-tert-butoxycarbonyl-4-piperidyl)methoxy}phenoxy]-phenyl}-1-cyclohexylbenzimidazole-5-carboxylic acid]	6.28
O=C(O)c1ccc2c(c1)nc(-c1ccc(OCc3cc(C(=O)N4CCC(O)CC4)ccc3-c3ccc(Cl)cc3)cc1)n2C1CCCC1 [Example 415, 2-{4-[2-(4-chlorophenyl)-5-(4-hydroxypiperidin-1-ylcarbonyl)benzyloxy]phenyl}-1-cyclopentylbenzimidazole-5-carboxylic acid hydrochloride]	7.72
O=C(O)c1ccc2c(c1)nc(-c1ccc(OCc3cc(Cl)ccc3-c3ccc(F)cc3)cc1)n2C1CCCCC1 [Example 171, 2-{4-[3-chloro-6-(4-fluorophenyl)benzyloxy]phenyl}-1-cyclohexylbenzimidazole-5-carboxylic acid]	7.30
COc1ccc(-c2ccc(Cl)cc2)c(COc2ccc(-c3nc4cc(C(=O)O)ccc4n3C3CCCCC3)c(F)c2)c1 [Example 468, 2-[4-{2-(4-chlorophenyl)-5-methoxybenzyloxy}-2-fluorophenyl]-1-cyclohexylbenzimidazole-5-carboxylic acid]	7.55
Cc1nc(-c2ccc(-c3ccc(Cl)cc3)c(COc3ccc(-c4nc5cc(C(=O)O)ccc5n4C4CCCCC4)cc3)c2)cs1 [Example 347, 2-{4-[2-(4-chlorophenyl)-5-(2-methylthiazol-4-yl)benzyloxy]-phenyl}-1-cyclohexylbenzimidazole-5-carboxylic acid]	7.66
O=C(O)c1ccc2c(c1)nc(-c1ccc(CCc3ccccc3)cc1)n2C1CCCCC1 [Example 77, 1-cyclohexyl-2-(4-phenethylphenyl)benzimidazole-5-carboxylic acid]	6.29
O=C(O)c1ccc2c(c1)nc(-c1ccc(OCc3cc(Cl)ccc3-c3cccs3)cc1)n2C1CCCCC1 [Example 168, 2-{4-[3-chloro-6-(2-thienyl)benzyloxy]phenyl}-1-cyclohexylbenzimidazole-5-carboxylic acid]	7.11
CN(C)C(=O)c1ccc(-c2ccc(F)cc2)c(COc2ccc(-c3nc4cc(C(=O)O)ccc4n3C3CCCCC3)cc2)c1 [Example 360, 2-{4-[5-(dimethylcarbamoyl)-2-(4-fluorophenyl)benzyloxy]phenyl}-1-cyclohexylbenzimidazole-5-carboxylic acid hydrochloride]	7.85
O=C(O)c1ccc2c(c1)nc(-c1ccc(OCc3cccc(Cl)c3)cc1)n2C1CCCC1 [Example 55, 2-[4-(3-chlorobenzyloxy)phenyl]-1-cyclopentylbenzimidazole-5-carboxylic acid]	6.44
Cc1nc(COc2cccc(Oc3ccc(-c4nc5cc(C(=O)O)ccc5n4C4CCCCC4)cc3)c2)cs1 [Example 220, 1-cyclohexyl-2-{4-[3-{(2-methyl-4-thiazolyl)methoxy}phenoxy]-phenyl}benzimidazole-5-carboxylic acid]	7.14
O=C(O)c1ccc2c(c1)nc(-c1ccc(OCc3cc(C(=O)NC4CCCCC4)ccc3-c3ccc(Cl)cc3)cc1)n2C1CCCCC1 [Example 324, 2-{4-[2-(4-chlorophenyl)-5-(cyclohexylcarbamoyl)benzyloxy]-phenyl}-1-cyclohexylbenzimidazole-5-carboxylic acid hydrochloride]	7.57
O=C(O)c1ccc2c(c1)nc(-c1ccc(OCc3cc(-c4noc(=O)[nH]4)ccc3-c3ccc(Cl)cc3)cc1F)n2C1CCCCC1 [Example 374, 2-{4-[2-(4-chlorophenyl)-5-(2,5-dihydro-5-oxo-4H-1,2,4-oxadiazol-3-yl)benzyloxy]-2-fluorophenyl}-1-cyclohexylbenzimidazole-5-carboxylic acid hydrochloride]	7.89
O=C(O)c1ccc2c(c1)nc(-c1ccc(Oc3cccc(OCCc4ccccc4)c3)cc1)n2C1CCCCC1 [Example 124, 1-cyclohexyl-2-[4-(3-phenethyloxyphenoxy)phenyl]benzimidazole-5-carboxylic acid]	7.04
O=C(O)c1ccc2c(c1)nc(-c1ccc(OCc3cc(Cl)ccc3-c3ccccc3C(F)(F)F)cc1)n2C1CCCCC1 [Example 151, 2-{4-[3-chloro-6-(2-trifluoromethylphenyl)benzyloxy]phenyl}-1-cyclohexylbenzimidazole-5-carboxylic acid]	6.70
O=C(O)c1ccc2c(c1)nc(-c1ccc(Oc3cccc(OCc4ccc(C(F)(F)F)cc4)c3)cc1)n2C1CCCCC1 [Example 210, 1-cyclohexyl-2-{4-[3-(4-trifluoromethylbenzyloxy)phenoxy]phenyl}-benzimidazole-5-carboxylic acid]	6.51
Cc1nc(COc2ccc(-c3nc4cc(C(=O)O)ccc4n3C3CCCCC3)cc2)c(-c2ccc(Cl)cc2)s1 [Example 206, 2-{4-[{5-(4-chlorophenyl)-2-methyl-4-thiazolyl}methoxy]phenyl}-1-cyclohexylbenzimidazole-5-carboxylic acid]	7.30

SMILES	pIC50
O=C(O)c1ccc2c(c1)nc(-c1ccc(OCc3ccc(Cl)c(Cl)c3)cc1)n2C1CCCC1 [Example 68, 1-cyclopentyl-2-[4-(3,4-dichlorobenzyloxy)phenyl]benzimidazole-5-carboxylic acid]	6.55
Cc1nc(-c2ccc(C(=O)N(C)C)cc2)c(COc2ccc(-c3nc4cc(C(=O)O)ccc4n3C3CCCCC3)cc2)s1 [Example 231, 1-cyclohexyl-2-{4-[{4-(4-dimethylcarbamoylphenyl)-2-methyl-5-thiazolyl}methoxy]phenyl}benzimidazole-5-carboxylic acid]	7.14
CN(C)C(=O)c1cc(OCc2ccncc2)cc(Oc2ccc(-c3nc4cc(C(=O)O)ccc4n3C3CCCCC3)cc2)c1 [Example 259, 1-cyclohexyl-2-{4-[3-dimethylcarbamoyl-5-(4-pyridylmethoxy)-phenoxy]phenyl}benzimidazole-5-carboxylic acid dihydrochloride]	7.00
COc1cccc(CCOc2ccc(-c3nc4cc(C(=O)O)ccc4n3C3CCCCC3)cc2)c1 [Example 121, 1-cyclohexyl-2-{4-[2-(3-methoxyphenyl)ethoxy]phenyl}-benzimidazole-5-carboxylic acid]	6.72
O=C(O)c1cc(OCc2ccncc2)cc(Oc2ccc(-c3nc4cc(C(=O)O)ccc4n3C3CCCCC3)cc2)c1 [Example 260, 1-cyclohexyl-2-{4-[3-carboxy-5-(4-pyridylmethoxy)phenoxy]-phenyl}benzimidazole-5-carboxylic acid dihydrochloride]	6.57
CN(C)c1ccc(-c2ccc(Cl)cc2)c(COc2ccc(-c3nc4cc(C(=O)O)ccc4n3C3CCCCC3)cc2)c1 [Example 282, 2-{4-[2-(4-chlorophenyl)-5-dimethylaminobenzyloxy]phenyl}-1-cyclohexylbenzimidazole-5-carboxylic acid]	7.72
O=C(O)c1ccc(-c2ccc(Cl)cc2COc2ccc(-c3nc4cc(-c5nnn[nH]5)ccc4n3C3CCCCC3)c(F)c2)cc1 [Example 435, 2-{4-[2-(4-carboxyphenyl)-5-chlorobenzyloxy]-2-fluorophenyl}-1-cyclohexyl-5-tetrazol-5-ylbenzimidazole hydrochloride]	7.92
CN(C)C(=O)COCc1nc(-c2ccc(F)cc2)c(COc2ccc(-c3nc4cc(C(=O)O)ccc4n3C3CCCCC3)cc2)s1 [Example 426, 2-{4-[{2-[{(dimethylcarbamoyl)methoxy}methyl]-4-(4-fluorophenyl)thiazol-5-yl}methoxy]phenyl}-1-cyclohexylbenzimidazole-5-carboxylic acid hydrochloride]	7.28
O=C(O)c1ccc2c(c1)nc(-c1ccc(Oc3ccc(OCc4ccccc4)cc3)c(F)c1)n2C1CCCCC1 [Example 172, 2-[4-(4-benzyloxyphenoxy)-3-fluorophenyl]-1-cyclohexylbenzimidazole-5-carboxylic acid]	7.00
O=C(O)c1ccc2c(c1)nc(-c1ccc(OCc3ncccc3-c3ccc(Cl)cc3)cc1)n2C1CCCCC1 [Example 235, 2-{4-[{3-(4-chlorophenyl)-2-pyridyl}methoxy]phenyl}-1-cyclohexylbenzimidazole-5-carboxylic acid]	7.44
O=C(O)c1ccc2c(c1)nc(-c1ccc(OCc3cc(C(=O)N4CCSCC4)ccc3-c3ccc(Cl)cc3)cc1F)n2C1CCCCC1 [Example 291, 2-{4-[2-(4-chlorophenyl)-5-thiomorpholinocarbonylbenzyloxy]-2-fluorophenyl}-1-cyclohexylbenzimidazole-5-carboxylic acid]	7.80
COc1ccc(-c2ccc(Cl)cc2)c(COc2ccc(-c3nc4cc(S(=O)(=O)O)ccc4n3C3CCCCC3)cc2)c1 [Example 257, 2-{4-[2-(4-chlorophenyl)-5-methoxybenzyloxy]phenyl}-1-cyclohexylbenzimidazole-5-sulfonic acid]	7.13
O=C(O)c1ccc2c(c1)nc(-c1ccc(OCCc3cccc4ccccc34)cc1)n2C1CCCCC1 [Example 103, 1-cyclohexyl-2-{4-[2-(1-naphthyl)ethoxy]phenyl}benzimidazole-5-carboxylic acid]	6.77
O=C(O)c1ccc2c(c1)nc(-c1ccc(OC[C@@H]3CCCN3C(=O)OCc3ccccc3)cc1)n2C1CCCCC1 [Example 185, 2-{4-[{(2S)-1-benzyloxycarbonyl-2-pyrrolidinyl}methoxy]phenyl}-1-cyclohexylbenzimidazole-5-carboxylic acid]	6.96
COc1c(C(=O)O)ccc2c1nc(-c1ccc(OCc3cc(C(=O)NC(C)C)ccc3-c3ccc(Cl)cc3)cc1F)n2C1CCCCC1 [Example 450, 2-[4-{2-(4-chlorophenyl)-5-(isopropylaminocarbonyl)benzyloxy}-2-fluorophenyl]-1-cyclohexyl-4-methoxybenzimidazole-5-carboxylic acid hydrochloride]	7.40
CC(C)=CCOc1cccc(Oc2ccc(-c3nc4cc(C(=O)O)ccc4n3C3CCCCC3)cc2)c1 [Example 113, 1-cyclohexyl-2-{4-[3-(3-methyl-2-butenyloxy)phenoxy]phenyl}-benzimidazole-5-carboxylic acid]	7.15
